Key:
hTSCs [1] = assay: RT-qPCR analysis of IL-6 / IL-8 treated hTSCs; format: cell-based, human; details: n=4; for CREB1 mRNA: IL-6 10 ng/ml or IL-8 30 ng/ml
Method: RNA was isolated from hTS cells in triplicate or quintuple samples using TRIZOL® reagent (INVITROGEN®) with DNAase I on-column digestion (Qiagen) according to manufacturer's protocol. Total RNA (500 ng) was used for reverse transcription with […] cDNA synthesis kit (BIO-RAD®). PCR carried out in duplicate using 1/40th of the cDNA per reaction and 400 nM forward and reverse primers. For miRNA stem-loop qPCR, we used single tube TAQMAN® miRNA assays as manufacturer's instruction (Applied Biosystems). All RT reactions, including no-template controls and RT minus controls, were carried out in a GENEAMP® PCR 9700 Thermocycler (Applied Biosystems). Comparative real-time PCR was performed in triplicate or quintuple, including no-template controls, using specific primers for miR-124 or RNU6B (Applied Biosystems). U6 snRNA (RNU6B; Applied Biosystems) served as an endogenous control. Relative expression was calculated using SDS2.2.2 software (Applied Biosystems) was used for comparative ΔCt analysis.

β-hCG = assay: IL-6 induced β-hCG, Western blot assay; format: cell-based, human; details: IL-6 10 ng/ml, via GnRHR and IL-6R
Method: (§1) After electrophoresis of 30 μg lysates on polyacrylamide gels, electroblotting onto PDVF membranes (MILLIPORE®) was performed. By blocking of 5% non-fat dry milk in PBS at room temperature (I hr), target proteins were incubated with primary antibodies. All membranes were incubated with chemiluminescent (MILLIPORE®) and imaging was captured by the CHEMIDOC® XRS system (BIO-RAD®). Antibodies used were listed in Key Resource Table. Data were analyzed by AlphaEaseFC (version 4.0.0).

hTSCs [2] = assay: Transwell invasion and migration assay, hTSCs; format: cell-based, human; details: dose- and time-dependent; 4×10^3 cells/ml; n=3
prCTBs = assay: Transwell invasion and migration assay, prCTBs; format: cell-based, human; details: dose- and time-dependent; 4×10^3 cells/ml; n=3
Method: […] To do this, add extracellular matrix (ECM) materials on top of the transwell membrane and then add cells on top of the ECM. For example, […]® is thawed and liquefied on ice, and then 30-50 μl of […]® is added to a 24-well transwell insert and solidified in a 37 C incubator for 15-30 minutes to form a thin gel layer. Cell solution is added on top of the […]® coating to simulate invasion through the extracellular matrix. The transwell cell migration assay measures the chemotactic capability of cells toward a chemo-attractant. The transwell cell invasion assay, however, measures both cell chemotaxis and the invasion of cells through extracellular matrix, a process that is commonly found in cancer metastasis or embryonic development. Using a pipette, very carefully add 600 μl of the desired chemo-attractant into the bottom of the lower chamber in a 24-well plate. Add the chemo-attractant without moving the transwell insert and avoid generating bubbles. Make sure the chemo-attractant liquid in the bottom well makes contact with the membrane in the upper well to form a chemotactic gradient. Incubation time is dependent on cell type and the chemo-attractant being used. Note: Further tests may be needed to determine the incubation period. […] The number of migrated cells can be counted by using hemocytometer or flow cytometer. […]

FGFR1 = molecular target: T1, FGFR1 (Homo sapiens, UniProt P11362); assay: bFGF activation of FGFR1 and downstream PI3K signal, Western blot assay; format: cell-based; details: bFGF 10 ng/ml
T1 construct: endogenous in cells; host or cells: human trophoblast stem (hTS) cells
Method: as §1, with “In cell culture, hTS cells were treated with bFGF and harvested at time as indicated and put into RIPA lysis solution (MILLIPORE®) supplemented with protease (Thermo Scientific) and phosphatase inhibitor (Cell Signaling Technology). After” for “After”

CD56 = assay: IL-8 induced CD56 via CXCR2/STAT3 signaling, Western blot assay; format: cell-based, human; details: IL-8 30 ng/ml
Method: as §1

CD4 = assay: IL-8 generated CD4(+) prCTBs, Western blot assay; format: cell-based, human; details: IL-8 30 ng/ml
Method: as §1

Foxp3 = assay: IL-8 induced Foxp3 via CXCR2/STAT3 signaling, Western blot; format: cell-based, human; details: IL-8 30 ng/ml; for IL-8-induced Foxp3 in presence of inhibitor: n=3 cell lines
Method: as §1

hTS cells = assay: Insulin secretion by RIA in secretomic analysis; format: cell-based, human; details: hTS cells (1×10^6 cells), glucose 20 mM, gliclazide 10 μM, nifedipine 10 μM, n=3
Method: The hTS cell culture media (10 ml) were harvested at 80-90% confluence followed by centrifugation (3,000 rpm, 30 min, 4° C.). The supernatants were further concentrated to 1 ml by using 3 kDa VIVASPIN® concentrator (Sigma). The concentrated supernatant was further detected for TGF-β1, HLA-G, and PAI-1 by immunoblotting assay. IL-10 level was measured by OPTEIA® ELISA assay kit following the supplier's instructions (BD Pharmingen, San Diego). The range of detectable IL-10 concentration was between 2 and 2,000 pg/ml. An aliquot of 100 μl sample was measured in triplicate. Total protein of supernatant was measured by using Pierce BCA protein assay kit (THERMO […]®). […] Media were collected at different time (5, 10, 20, 30, 60 and 120 min), freeze dried by lyophilizer (VIRTIS®; Warminster), and rehydrated with sterile water (400 μl) for radioimmunoassay (RIA). C-peptide and insulin levels were determined by C-PEP II-RIA-CT (DIAsource ImmunoAssays S. A.) and Coat-A-Count insulin (Siemens Healthcare Diagnostics), respectively, in 5 assays.

PI3K/AKT signaling = assay: Gβ/PI3K/AKT/GSK3α/β pathway by blotting analysis in hTS cells; format: cell-based, human
Method: as §1, with “In cell culture, hTS cells were treated with bFGF and harvested at time as indicated and put into RIPA lysis solution (MILLIPORE®) supplemented with protease (Thermo Scientific) and phosphatase inhibitor (Cell Signaling Technology). After” for “After”

[3] = tested on: STAT3, c-JUN, Fas ligand (FasL), Fas; assay: STAT3, c-JUN, FasL and Fas by immunoblotting assay; format: cell-based, human; details: bFGF 10 ng/ml
Method: as §1, with “In cell culture, hTS cells were treated with bFGF and harvested at time as indicated and put into RIPA lysis solution (MILLIPORE®) supplemented with protease (Thermo Scientific) and phosphatase inhibitor (Cell Signaling Technology). After” for “After”

IL-6 and IL-8 = assay: bFGF induction of IL-6 and IL-8; format: cell-based, human; details: bFGF 10 ng/ml; time-dependent; n=3 cell lines
Method: To explore how prCTBs produce cytokines IL-6 and IL-8, hTSCs were incubated with bFGF for 1-day mimicking the transient stay in the fallopian tube. Mechanistically, bFGF activated its receptor FGFR1 at cell membrane to induce PI3K/phosphorylated (p)AKT signaling. In turn, pAKT interacted and phosphorylated downstream pCREB1 (cAMP responsive element binding protein 1) to activate pCREB1 signaling. These molecular processes were verified by using FGFR 1 inhibitor PD166866, and specific shRNAs for PI3K and pAKT (FIGS. 7G-7J). In the nucleus, CREB1 targeted the genes to produce IL-6 in a time-dependent manner (FIG. 7K, left panel) and IL-8 (FIG. 7K, right panel) in a dose-dependent manner, confirmed by ELISA assay (FIG. 7C). These molecular processes occurred co-incidentally with EMT in time and space.

hTSCs [4] = assay: bFGF-induced epithelial-mesenchymal transition markers, Western blot assay; format: cell-based, human; details: bFGF 10 ng/ml
Method: as §1, with “In cell culture, hTS cells were treated with bFGF and harvested at time as indicated and put into RIPA lysis solution (MILLIPORE®) supplemented with protease (Thermo Scientific) and phosphatase inhibitor (Cell Signaling Technology). After” for “After”

T1 sequence (P11362 22-822): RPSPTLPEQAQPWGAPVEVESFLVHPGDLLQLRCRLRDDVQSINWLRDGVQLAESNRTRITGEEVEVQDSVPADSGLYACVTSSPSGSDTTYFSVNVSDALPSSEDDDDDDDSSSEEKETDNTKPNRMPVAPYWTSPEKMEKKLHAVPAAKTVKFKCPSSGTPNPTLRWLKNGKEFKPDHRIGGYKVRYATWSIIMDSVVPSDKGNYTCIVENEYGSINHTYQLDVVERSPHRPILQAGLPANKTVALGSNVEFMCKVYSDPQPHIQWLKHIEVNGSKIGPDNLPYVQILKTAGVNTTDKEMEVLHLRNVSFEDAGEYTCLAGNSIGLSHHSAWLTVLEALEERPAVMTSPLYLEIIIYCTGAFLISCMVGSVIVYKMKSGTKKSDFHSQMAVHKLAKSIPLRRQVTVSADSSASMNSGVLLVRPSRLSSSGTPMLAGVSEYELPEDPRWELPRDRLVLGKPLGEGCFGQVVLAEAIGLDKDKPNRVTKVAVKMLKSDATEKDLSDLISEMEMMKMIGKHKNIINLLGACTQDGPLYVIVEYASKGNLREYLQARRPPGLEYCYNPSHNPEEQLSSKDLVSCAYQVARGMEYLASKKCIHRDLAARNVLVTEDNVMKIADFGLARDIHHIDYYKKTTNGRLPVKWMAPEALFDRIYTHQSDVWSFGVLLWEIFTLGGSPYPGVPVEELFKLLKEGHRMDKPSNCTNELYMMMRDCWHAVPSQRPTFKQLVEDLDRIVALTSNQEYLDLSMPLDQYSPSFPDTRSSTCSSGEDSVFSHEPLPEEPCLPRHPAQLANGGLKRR

## IL-6: interleukin 6
hTSCs [1]; hTSCs
  CREB1 mRNA: upregulated
hTSCs [1]; IL-6 10 ng/ml, hTSCs
  IL-6R mRNA: upregulated
  β-hCG mRNA: upregulated
β-hCG
  β-hCG induction: induced β-hCG

## MCP-1: monocyte chemoattractant protein-1
hTSCs [2]
  movement (invasion and migration) of hTSCs: significantly induced movement
prCTBs
  movement (invasion and migration) of prCTBs: significantly induced movement

## COc1cc(OC)cc(-c2cc3cnc(N)nc3nc2NC(=O)NC(C)(C)C)c1 [PD166866, reference compound]
FGFR1
  bFGF activation of FGFR1 and PI3K signal in presence of inhibitor: inhibited

## IL-8: interleukin 8
CD56
  CD56 induction: induced CD56
CD4
  generation of CD4(+) prCTBs: generated CD4(+) prCTBs
Foxp3
  Foxp3 induction: induced Foxp3
hTSCs [1]; hTSCs
  CREB1 mRNA: upregulates
hTSCs [1]; IL-8 30 ng/ml
  CD56 mRNA: upregulates
  conventional receptor IL-8R mRNA: not

## Cc1ccc(S(=O)(=O)NC(=O)NN2CC3CCCC3C2)cc1 (stereo not shown) [gliclazide]
hTS cells
  insulin secretion: promoted insulin secretion

## O=C(Nc1ccc([N+](=O)[O-])cc1O)Nc1ccccc1Br [SB225002]
CD56
  IL-8-induced CD56 in presence of inhibitor: inhibited
CD4
  IL-8-induced CD4 in presence of inhibitor: inhibited
Foxp3
  IL-8-induced Foxp3 in presence of inhibitor: inhibited

## NC1(c2ccc(-c3nc4ccn5c(=O)[nH]nc5c4cc3-c3ccccc3)cc2)CCC1 [MK2206]
PI3K/AKT signaling
  Gβ-induced phosphorylation of AKT (ser473) and GSK3α/β (ser21/9) in presence of inhibitor: inhibited

## O=[N+]([O-])c1ccc2c(c1)S(=O)(=O)C=C2 [Stattic]
CD56
  IL-8-induced CD56 in presence of inhibitor: inhibited
CD4
  IL-8-induced CD4 in presence of inhibitor: inhibited
Foxp3
  IL-8-induced Foxp3 in presence of inhibitor: inhibited

## CXCL2: chemokine (C-X-C motif) ligand 2
hTSCs [2]
  movement (invasion and migration) of hTSCs: significantly induced movement
prCTBs
  movement (invasion and migration) of prCTBs: significantly induced movement

## Cn1cc(C2=C(c3ccc(Cl)cc3Cl)C(=O)NC2=O)c2ccccc21 [SB216763]
PI3K/AKT signaling
  pMAFA expression in presence of inhibitor: inhibited

## bFGF: basic fibroblast growth factor
[3]
  Fas level: downregulation
  Fas ligand (FasL) level: upregulation
  STAT3 level: upregulation
  c-JUN level: upregulation
IL-6 and IL-8
  IL-6 production: induced
  IL-8 production: induced
hTSCs [4]
  E-cadherin expression: down-regulated
  TGF-β1 expression: up-regulated
  vimentin expression: up-regulated
FGFR1
  activation of FGFR1 and downstream PI3K signal: activated

Source: patent US12077777B2, “Precursory regulatory cytotrophoblast cells and uses thereof” (Accelerated BioSciences Corp., priority 2019, dated 2024)
